Entries after “also recorded” stand apart in the source; their conditions may differ.
How the values were obtained:
solubility in water = type: physicochemical
[1] = variable-temperature powder X-ray diffraction, crystal form stability at high temperatures; type: physicochemical; settings: heated from 30° C. to 80° C.; powder X-ray diffraction at 35, 45, 55, 65 and 75° C.
Experimental: The crystalline form I of (R)-4-hydroxy-2-oxo-1-pyrrolidineacetamide of the invention was placed on a single crystal silicon sample stage, heated from 30° C. to 80° C., and subjected to powder X-ray diffraction measurement at 35° C., 45° C., 55° C., 65° C. and 75° C., respectively. […] It can be seen that the crystalline form I of (R)-4-hydroxy-2-oxo-1-pyrrolidineacetamide of the invention has good stability at high temperatures. When the crystalline form I of (R)-4-hydroxy-2-oxo-1-pyrrolidineacetamide of the invention is used for storage or formulation processing, the requirements on processing and storage temperatures are reduced.

- solubility (solubility in water): ≥ 90 mg/mL
SMILES: NC(=O)CN1C[C@H](O)CC1=O [crystalline form I, (R)-4-hydroxy-2-oxo-1-pyrrolidineacetamide]
- crystal transformation on heating (stability at high temperatures) [1]: does not show a phenomenon of crystal transformation; also recorded: does not exhibit crystal transformation phenomenon

Source: patent publication US10556863B1, “Crystalline form of (R)-4-hydroxy-2-oxo-1-pyrrolidineacetamide, preparation method therefor and use thereof” (CHONGQING RUNZE PHARMACEUTICAL COMPANY LIMITED, priority 2016, dated 2020)
